Assay results from patent EP0308559A2, “Cephalosporins, process for their preparation, pharmaceutical compositions containing them and intermediates” (BEECHAM GROUP PLC, priority 1987, dated 1989).
Structures can show the parent of a compound that is named as a salt.

Assays:
Enterobacter cloacae P99 = assay: Minimum Inhibitory Concentration (MIC) by serial dilution in agar; assay type: cell-based
Procedure: (§1) Minimum Inhibitory Concentration (MIC) values of compounds of the invention against Enterobacter cloacae P99 and Pseudomonas aeruginosa Charlier were determined by serial dilution in agar. The plates were inoculated with 10⁴ colony forming units and incubated overnight at 37°C. The MIC values recorded in Table 1 were the lowest concentration of antibiotic to inhibit growth. Comparative data for 7β-[2-(3,4-diacetoxyphenyl)-2-[4-ethyl-2,3-dioxopiperazin-1-yl)carbonylamino]-acetamido]-7α-formamido-3-[1-methyl-1H-tetrazol-5-yl) thiomethyl]ceph-3-em-4-carboxylic acid, sodium salt (compound A), disclosed in European Patent Application No.82303821.1 (Publication Number 0 071 395; Example 57), are also given.

[1] = tested on: Pseudomonas aeruginosa Charlier; assay: as above; assay type: cell-based; conditions: 10⁴ colony forming units, incubated overnight at 37°C, lowest concentration to inhibit growth
Procedure: as §1

CCN1CCN(C(=O)N[C@@H](C(=O)N[C@]2(NC=O)C(=O)N3C(C(=O)O)=C(CSc4nnnn4N)CS[C@@H]32)c2ccc(O)c(O)c2)C(=O)C1=O [Example 2, Sodium 3-[(1-Amino-1H-tetrazol-5-yl)thiomethyl]-7β-[D-2-(3,4-dihydroxyphenyl)-2-[(4-ethyl-2,3-dioxopiperazin-1-yl)carbonylamino]acetamido]-7α-formamidoceph-3-em-4-carboxylate]
MIC (Enterobacter cloacae P99): 4 µg/mL
MIC [1]: 2 µg/mL

CCN1CCN(C(=O)NC(C(=O)N[C@]2(NC=O)C(=O)N3C(C(=O)O)=C(CSc4nnnn4C)CS[C@@H]32)c2ccc(OC(C)=O)c(OC(C)=O)c2)C(=O)C1=O (stereo partly drawn) [Compound A, 7β-[2-(3,4-diacetoxyphenyl)-2-[4-ethyl-2,3-dioxopiperazin-1-yl)carbonylamino]acetamido]-7α-formamido-3-[1-methyl-1H-tetrazol-5-yl) thiomethyl]ceph-3-em-4-carboxylic acid, sodium salt, reference compound]
MIC (Enterobacter cloacae P99): 8 µg/mL
MIC [1]: 4 µg/mL

CCN1CCN(C(=O)N[C@@H](C(=O)N[C@]2(NC=O)C(=O)N3C(C(=O)O)=C(CSc4nnnn4N)CS[C@@H]32)c2ccc(OC(C)=O)c(OC(C)=O)c2)C(=O)C1=O [Example 1, Sodium 3-[(1-Amino-1H-tetrazol-5-yl)thiomethyl]-7β-[D-2-(3,4-diacetoxyphenyl)-2-[(4-ethyl-2,3-dioxopiperazin-1-yl)carbonylamino]acetamido]-7α-formamidoceph-3-em-4-carboxylate]
MIC (Enterobacter cloacae P99): 2 µg/mL
MIC [1]: 2 µg/mL
